Columns and labels:
[1] = test system: HTR tumor-derived cells; assay: OXPHOS potential (Seahorse) in FACS sorted tumor-derived cancer cells ± HT; assay type: cell-based, human; conditions: fulvestrant 10 μM, FIG. 2b
Source text: (§1) (Panel a) Representative tumor growth kinetics (BLI) of GFP+/Luciferase+MCF7 xenografts (n=10) treated with weekly fulvestrant once mammary fat pad tumors were established (after 3 months) which led to a period (4 months) of disease stability on HT (HTS) followed by exponential growth on HT (HTR). Representative H&E images of tumors and primary cultures from unsorted as well as FACS purified cancer cells (GFP+/Epcam+) and murine CAFs (GFP−/Epcam). Scale bar 20 μm. (Panel b) OXPHOS potential in tumor-derived cancer cells (panel a) was measured±HT (fulvestrant, 10 μM) by Seahorse. […] (Panel d) Percentage of metastatic lesions isolated by FACS from tumor-bearing mice (n=8/group) expressing murine mtDNA as determined by ND1 qPCR (2 ng of total DNA). Oxygen consumption rates (OCR) in murine-mtDNApos and ctrl HTR cells determined by Seahorse. (Panel e) Murine mitochondrial RNA expression (12 genes: ND1, ND2, COX2, ATP8, ATP6, COX3, ND3, ND4L, ND4, ND5, ND6, CytB) as fold change (logioscale) determined by qRT-PCR in HTR and HTS cells (panel a). […]
(§2) Mitochondrial respiration and OXPHOS potential in cells was assessed using Seahorse technology (www.seahorsebio.com)(Qian, W. & Van Houten, B. Alterations in bioenergetics due to changes in mitochondrial DNA copy number. Methods 51, 452-457 (2010)). […]

[2] = test system: HTS cells; assay: as above; assay type: cell-based, human; conditions: fulvestrant 10 μM, FIG. 2b
Source text: as §1, §2

[3] = test system: MCF7 xenografts; assay: Tumor growth (BLI) of MCF7 mammary fat pad xenografts treated with HT; assay type: in vivo, mice; conditions: weekly fulvestrant, FIG. 2a
Source text: (Panel a) Representative tumor growth kinetics (BLI) of GFP+/Luciferase+MCF7 xenografts (n=10) treated with weekly fulvestrant once mammary fat pad tumors were established (after 3 months) which led to a period (4 months) of disease stability on HT (HTS) followed by exponential growth on HT (HTR). Representative H&E images of tumors and primary cultures from unsorted as well as FACS purified cancer cells (GFP+/Epcam+) and murine CAFs (GFP−/Epcam). Scale bar 20 μm. (Panel b) OXPHOS potential in tumor-derived cancer cells (panel a) was measured±HT (fulvestrant, 10 μM) by Seahorse. (Panel c) mtDNA/nDNA (human and murine) level as Fold change (log10scale) in cancer cells and mCAFs isolated from HTS and HTR disease (panel a). (Panel d) Percentage of metastatic lesions isolated by FACS from tumor-bearing mice (n=8/group) expressing murine mtDNA as determined by ND1 qPCR (2 ng of total DNA). Oxygen consumption rates (OCR) in murine-mtDNApos and ctrl HTR cells determined by Seahorse. (Panel e) Murine mitochondrial RNA expression (12 genes: ND1, ND2, COX2, ATP8, ATP6, COX3, ND3, ND4L, ND4, ND5, ND6, CytB) as fold change (logioscale) determined by qRT-PCR in HTR and HTS cells (panel a). […]
All cancer cell lines were engineered to express a GFP positive luciferase expression vector for in vitro and in vivo imaging studies. […] EV-number was determined by Nanosight. […]

[4] = test system: ER+ tumor-derived cells and cell lines; assay: OXPHOS potential (Seahorse) in HT-treated cancer cells; assay type: cell-based, human; conditions: fulvestrant; FIG. 11c
Source text: (Panel a), Representative bright field images of MCF7 po cells±CAF-EVs (3×10^9/weekly for 40 days). Bar graph of number of MS is also reported at the endpoint of the experiment (40 days). (Panel b), HT led to decreased expression of mRNA involved in protein synthesis and OXPHOS signaling with z score and -log (p-values)- as determined by Ingenuity analysis of microarray data from RNA isolated FIG. 5a (MCF7), single P values are also reported. (Panel c), OXPHOS potential determined as changes of respiration rate under mitochondrial stressors by seahorse technology (oligomycin 1 μM, rotenone 100 nM) in cancer cells isolated from FIG. 5b (MCF7, PT1). […] (Panel e), Mitochondrial Complex I/IV activity quantification as determined by nmol/min/mg of protein in luminal breast cancer cell lines from panel a. […]
Mitochondrial respiration and OXPHOS potential in cells was assessed using Seahorse technology (www.seahorsebio.com)(Qian, W. & Van Houten, B. Alterations in bioenergetics due to changes in mitochondrial DNA copy number. Methods 51, 452-457 (2010)). Oxygen consumption rate (OCR), extracellular acidification rate and glycolytic potential were determined using the Seahorse extracellular flux analyzer (XF-96, XF-24 Seahorse Bioscience). […] Furthermore OXPHOS potential was determined by measuring the area of the progress curve after the addition of glucose and rotenone/oligomycin.

`C[C@]12CC[C@@H]3c4ccc(O)cc4C[C@@H](CCCCCCCCC[S+]([O-])CCCC(F)(F)C(F)(F)F)[C@H]3[C@@H]1CC[C@@H]2O` (stereo partly shown) [fulvestrant] was tested, and the “OXPHOS capacity of HTR tumor-derived cells” value [1] was “unaffected”, the “OXPHOS potential of HTS cells” value [2] was “inhibited” and the “growth pattern of tumors in tumor-bearing mice treated with HT” value [3] was “no growth for 4 months (HTS) followed by exponential growth (HTR)”. The “OXPHOS potential in cells treated with HT” value [4] was “reduced”.
